ChEMBL document CHEMBL1201862, “PubChem BioAssay data set” (2004)
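1) Cells in 96-well plates. 2) Compound, 48 h, 5 concentrations. 3) Linear interpolation between surrounding doses. 4) Unreached endpoint = highest concentration. GI50 marks 50% less growth.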 The source made the active and inactive calls. Cut-off read from the data, not from the text of the source: active = GI50 up to about 1.1 µM and inactive = higher.

Key:
Experiment in all cases: NCI tumour cell line growth inhibition, 48 h
786-0 = system: 786-0
A498 = system: A498
A549 = system: A549
ACHN = system: ACHN
CAKI-1 = system: CAKI-1
CCRF-CEM = system: CCRF-CEM
COLO 205 = system: COLO 205
DLD-1 = system: DLD-1
DMS-273 = system: DMS-273
EKVX = system: EKVX
HCT-15 = system: HCT-15
HL-60 = system: HL-60
HOP-18 = system: HOP-18
HOP-92 = system: HOP-92
HT-29 = system: HT-29
IGROV-1 = system: IGROV-1
K562 = system: K562
KM-20L2 = system: KM-20L2
KM12 = system: KM12
LOX IMVI = system: LOX IMVI
LXFL 529 = system: LXFL 529
M14 = system: M14
M19-MEL = system: M19-MEL
MOLT-4 = system: MOLT-4
Malme-3M = system: Malme-3M
NCI-H23 = system: NCI-H23
NCI-H460 = system: NCI-H460
NCI-H522 = system: NCI-H522
OVCAR-3 = system: OVCAR-3
OVCAR-4 = system: OVCAR-4
OVCAR-5 = system: OVCAR-5
OVCAR-8 = system: OVCAR-8
RPMI-8226 = system: RPMI-8226
RXF 393 = system: RXF 393
RXF 631 = system: RXF 631
SF-268 = system: SF-268
SF-295 = system: SF-295
SF-539 = system: SF-539
SK-MEL-28 = system: SK-MEL-28
SK-MEL-2 = system: SK-MEL-2
SK-MEL-5 = system: SK-MEL-5
SK-OV-3 = system: SK-OV-3
SN12C = system: SN12C
SNB-19 = system: SNB-19
SNB-75 = system: SNB-75
SW-620 = system: SW-620
TK-10 = system: TK-10
U-251 = system: U-251
UACC-62 = system: UACC-62
UO-31 = system: UO-31
XF498 = system: XF498
DMS-114 = system: DMS-114
HCC 2998 = system: HCC 2998
HCT-116 = system: HCT-116
HOP-62 = system: HOP-62
NCI-H226 = system: NCI-H226
SNB-78 = system: SNB-78
SR = system: SR
UACC-257 = system: UACC-257

With CCCCCCCCSC(=O)NCCCC the GI50 (786-0) was 38.1 µM (inactive), the GI50 (A498) was 54.1 µM (inactive) and the GI50 (A549) was 38.2 µM (inactive). The GI50 (ACHN) was 34.7 µM (inactive), the GI50 (CAKI-1) was 36.1 µM (inactive) and the GI50 (CCRF-CEM) was 28.2 µM (inactive). The GI50 (COLO 205) was 54.6 µM (inactive), the GI50 (DLD-1) was 35.8 µM (inactive) and the GI50 (DMS-273) was 35 µM (inactive). The GI50 (EKVX) was 27.8 µM (inactive), the GI50 (HCT-15) was 27.2 µM and the GI50 (HL-60) was 18.7 µM (inactive). The GI50 (HOP-18) was 94.6 µM (inactive), the GI50 (HOP-92) was 14.4 µM (inactive) and the GI50 (HT-29) was 26.4 µM (inactive). For the same molecule, the GI50 (IGROV-1) was > 100 µM (inactive), the GI50 (K562) was 38.2 µM (inactive) and the GI50 (KM-20L2) was 23.7 µM (inactive). For the same molecule, the GI50 (KM12) was 51.8 µM (inactive), the GI50 (LOX IMVI) was 19.9 µM (inactive) and the GI50 (LXFL 529) was 37.8 µM (inactive). The GI50 (M14) was 25.8 µM (inactive), the GI50 (M19-MEL) was 42.1 µM (inactive) and the GI50 (MOLT-4) was 23.2 µM (inactive). The GI50 (Malme-3M) was 24.5 µM (inactive), the GI50 (NCI-H23) was 49.7 µM (inactive) and the GI50 (NCI-H460) was 34 µM (inactive). For the same molecule, the GI50 (NCI-H522) was 27.1 µM (inactive), the GI50 (OVCAR-3) was 41.3 µM (inactive) and the GI50 (OVCAR-4) was 33.5 µM (inactive). For the same molecule, the GI50 (OVCAR-5) was 48.4 µM (inactive), the GI50 (OVCAR-8) was 36.6 µM (inactive) and the GI50 (RPMI-8226) was 20.3 µM (inactive). For the same molecule, the GI50 (RXF 393) was 21.5 µM (inactive), the GI50 (RXF 631) was 39.4 µM (inactive) and the GI50 (SF-268) was 35.8 µM (inactive). The GI50 (SF-295) was 38.5 µM (inactive), the GI50 (SF-539) was 74 µM (inactive) and the GI50 (SK-MEL-28) was 29 µM (inactive). The GI50 (SK-MEL-2) was 17.7 µM (inactive), the GI50 (SK-MEL-5) was 22.2 µM (inactive) and the GI50 (SK-OV-3) was > 100 µM (inactive). For the same molecule, the GI50 (SN12C) was 33 µM (inactive), the GI50 (SNB-19) was 34.6 µM (inactive) and the GI50 (SNB-75) was 24.6 µM (inactive). The GI50 (SW-620) was 75.3 µM (inactive), the GI50 (TK-10) was 46.7 µM (inactive) and the GI50 (U-251) was 35.5 µM (inactive). The GI50 (UACC-62) was 43 µM (inactive), the GI50 (UO-31) was 19.6 µM (inactive) and the GI50 (XF498) was 21.4 µM (inactive).

C=C[C@]1(C)CCC2=C(CCC3C2(C)CCC[C@@]3(C)COC(C)=O)C1 (some centres not stated) was tested, and the GI50 (786-0) was 17.3 µM (inactive), the GI50 (A498) was 25.4 µM (inactive) and the GI50 (A549) was 22.8 µM (inactive). For the same molecule, the GI50 (ACHN) was 17.5 µM (inactive), the GI50 (CAKI-1) was 20.5 µM (inactive) and the GI50 (CCRF-CEM) was 17.6 µM (inactive). The GI50 (COLO 205) was 16.3 µM (inactive), the GI50 (DLD-1) was 18.5 µM (inactive) and the GI50 (DMS-114) was 22 µM (inactive). The GI50 (EKVX) was 19.5 µM (inactive), the GI50 (HCC 2998) was 17.7 µM (inactive) and the GI50 (HCT-116) was 17.2 µM (inactive). The GI50 (HCT-15) was 16.8 µM, the GI50 (HL-60) was 19.7 µM (inactive) and the GI50 (HOP-18) was 25.9 µM (inactive). The GI50 (HOP-62) was 22.9 µM (inactive), the GI50 (HOP-92) was 19.5 µM (inactive) and the GI50 (HT-29) was 18.7 µM (inactive). For the same molecule, the GI50 (IGROV-1) was 20.7 µM (inactive), the GI50 (K562) was 16.5 µM (inactive) and the GI50 (KM-20L2) was 17.5 µM (inactive). The GI50 (KM12) was 19.3 µM (inactive), the GI50 (LOX IMVI) was 18.6 µM (inactive) and the GI50 (LXFL 529) was 17.5 µM (inactive). For the same molecule, the GI50 (M14) was 20.9 µM (inactive), the GI50 (M19-MEL) was 21.7 µM (inactive) and the GI50 (MOLT-4) was 14.7 µM (inactive). The GI50 (Malme-3M) was 25 µM (inactive), the GI50 (NCI-H226) was 18.2 µM (inactive) and the GI50 (NCI-H23) was 22 µM (inactive). The GI50 (NCI-H460) was 17.6 µM (inactive), the GI50 (NCI-H522) was 15.4 µM (inactive) and the GI50 (OVCAR-3) was 17.7 µM (inactive). The GI50 (OVCAR-4) was 19.7 µM (inactive), the GI50 (OVCAR-5) was 18.2 µM (inactive) and the GI50 (OVCAR-8) was 19.1 µM (inactive). The GI50 (RPMI-8226) was 17.1 µM (inactive), the GI50 (RXF 393) was 22 µM (inactive) and the GI50 (RXF 631) was 16.7 µM (inactive). The GI50 (SF-268) was 23.4 µM (inactive), the GI50 (SF-295) was 17.8 µM (inactive) and the GI50 (SF-539) was 20.9 µM (inactive). For the same molecule, the GI50 (SK-MEL-28) was 33.1 µM (inactive), the GI50 (SK-MEL-2) was 14.6 µM (inactive) and the GI50 (SK-MEL-5) was 16.9 µM (inactive). For the same molecule, the GI50 (SK-OV-3) was 18.5 µM (inactive), the GI50 (SN12C) was 16.8 µM (inactive) and the GI50 (SNB-19) was 17.6 µM (inactive). The GI50 (SNB-75) was 18.1 µM (inactive), the GI50 (SNB-78) was 18.7 µM (inactive) and the GI50 (SR) was 18.6 µM (inactive). For the same molecule, the GI50 (SW-620) was 19.3 µM (inactive), the GI50 (TK-10) was 25.8 µM (inactive) and the GI50 (U-251) was 17.8 µM (inactive). For the same molecule, the GI50 (UACC-257) was 25.2 µM (inactive), the GI50 (UACC-62) was 21.1 µM (inactive) and the GI50 (UO-31) was 18.8 µM (inactive). For the same molecule, the GI50 (XF498) was 19.9 µM (inactive).

In the case of COC/C=C\COC, the GI50 (786-0) is reported as > 100 µM (inactive), the GI50 (A549) is reported as > 100 µM (inactive) and the GI50 (ACHN) is reported as > 100 µM (inactive). The GI50 (CAKI-1) was > 100 µM (inactive), the GI50 (CCRF-CEM) was > 100 µM (inactive) and the GI50 (COLO 205) was > 100 µM (inactive). The GI50 (DLD-1) was > 100 µM (inactive), the GI50 (DMS-114) was > 100 µM (inactive) and the GI50 (DMS-273) was > 100 µM (inactive). For the same molecule, the GI50 (EKVX) was > 100 µM (inactive), the GI50 (HCC 2998) was > 100 µM (inactive) and the GI50 (HCT-116) was > 100 µM (inactive). For the same molecule, the GI50 (HCT-15) was over 100 µM, the GI50 (HL-60) was > 100 µM (inactive) and the GI50 (HOP-18) was > 100 µM (inactive). For the same molecule, the GI50 (HOP-62) was > 100 µM (inactive), the GI50 (HOP-92) was > 100 µM (inactive) and the GI50 (HT-29) was > 100 µM (inactive). The GI50 (IGROV-1) was > 100 µM (inactive), the GI50 (K562) was > 100 µM (inactive) and the GI50 (KM-20L2) was > 100 µM (inactive). The GI50 (KM12) was > 100 µM (inactive), the GI50 (LOX IMVI) was > 100 µM (inactive) and the GI50 (LXFL 529) was > 100 µM (inactive). The GI50 (M14) was > 100 µM (inactive), the GI50 (M19-MEL) was > 100 µM (inactive) and the GI50 (MOLT-4) was > 100 µM (inactive). The GI50 (Malme-3M) was > 100 µM (inactive), the GI50 (NCI-H226) was > 100 µM (inactive) and the GI50 (NCI-H460) was > 100 µM (inactive). For the same molecule, the GI50 (OVCAR-3) was > 100 µM (inactive), the GI50 (OVCAR-4) was > 100 µM (inactive) and the GI50 (OVCAR-5) was > 100 µM (inactive). The GI50 (OVCAR-8) was > 100 µM (inactive), the GI50 (RPMI-8226) was > 100 µM (inactive) and the GI50 (RXF 393) was > 100 µM (inactive). The GI50 (RXF 631) was > 100 µM (inactive), the GI50 (SF-295) was > 100 µM (inactive) and the GI50 (SK-MEL-28) was > 100 µM (inactive). The GI50 (SK-MEL-2) was > 100 µM (inactive), the GI50 (SK-MEL-5) was > 100 µM (inactive) and the GI50 (SK-OV-3) was > 100 µM (inactive). The GI50 (SN12C) was > 100 µM (inactive), the GI50 (SNB-19) was > 100 µM (inactive) and the GI50 (SNB-75) was > 100 µM (inactive). The GI50 (SNB-78) was > 100 µM (inactive), the GI50 (SW-620) was > 100 µM (inactive) and the GI50 (TK-10) was > 100 µM (inactive). The GI50 (U-251) was > 100 µM (inactive), the GI50 (UACC-257) was > 100 µM (inactive) and the GI50 (UACC-62) was > 100 µM (inactive). The GI50 (UO-31) was > 100 µM (inactive) and the GI50 (XF498) was > 100 µM (inactive).
